# Reference: patent US20260355137A1, “NOVEL OPHTHALMIC FORMULATION” (FERTIS INDIA PVT LTD, priority 2022, published 2026)
# “Also recorded” adds a separate entry of the source.
# How the values were obtained:
# Type in all cases: in vivo, New Zealand rabbit
# [1] = system: cataract induced left eye: lens; test: Microscopic observations (histopathology) of lens (Table 12); conditions: left eye (cataract induced)
# Method: (§1) An illustrative ophthalmic formulation for treatment of eye disease is set forth below: The formulations provided herein below are tested in cataract induced New Zealand rabbits, and the results are discussed herein below.
# (§2) Cataract was induced by injecting 0.5% Methyl Cellulose, which is replaced by aqueous humor in the rabbit eye (i.e., 0.2 mL of Aqueous humor was withdrawn and the same 0.2 mL of 0.5% Methyl cellulose was injected as a replacement). Cataract was observed within 3-4 days of 0.5% Methyl cellulose replacement. Cataract induction was performed to left eye and right eye was served as a control.
# (§3) All surviving animals were euthanized on Day 29 by overdose of Thiopental Sodium. Before scheduled euthanasia, the animals were fasted overnight (water allowed) and terminal body weights were recorded. Animals were subjected to detailed macroscopic observation during necropsy. Both right (untreated/uninduced) and left (treated/induced) eyes were collected and cornea and lens were separated, preserved in Davidson fluid. Cornea and lens selected for histopathological evaluation were processed, embedded and sections were cut at 3-5 μm thickness, Sections were placed on grease-free slides and stained with Hematoxylin and Eosin. A 5-step grading system of minimum, mild, moderate, marked and severe will be used to rank microscopic findings for comparison among groups. Data was compiled based on incidences and severity of changes.
# [2] = system: cataract induced left eye; test: Macroscopic examination, cataract induced left eye (cinnamic acid derivatives, Tables 10-11)
# Method: as §1, §2
# (§4) Rabbits were observed by ophthalmoscope and slit lamp once in three days for cataract confirmation. Intraocular pressure was measured with a tonometer once in three days for the confirmation of glaucoma.
# [3] = system: intraocular pressure, induced left eye; test: Intraocular pressure, tonometer (Table 13); parameters: unit not given beside the values; conditions: left eye induced/treated
# Method: as §2, §4
# Intra-ocular pressures were measured in animals in each group once in three days using a Tonometer. The readings were documented for each eye separately.
# [4] = system: cataract induced New Zealand rabbits (left eye); test: Macroscopic observations, cataract induced left eye (study of rosmarinic acid formulations, Tables 2-3); conditions: ocular 100 μL/rabbit, 28 days, F1 0.25%, F2 0.5%, F3 1.0% rosmarinic acid each with N-acetyl carnosine, F4 0.5% without
# Method: as §1
# (§5) The following preclinical studies were conducted in rabbit model to test the efficacy of various active ingredients.
# as §2, §4
# Test Item formulations were administered through ocular route. Ocular route has been chosen as it is the intended therapeutic route of administration in humans.
# All test formulations provided as above were administered topically as a therapeutic treatment. A total of 100 μL/Rabbit of placebo or Rosmarinic acid formulations (F1, F2, F3 and F4) were instilled in the 50 μL/eye (left) in two divided doses for 28 days […]
# [5] = system: cataract and intraocular pressure/glaucoma in induced rabbit eye; test: Overall efficacy in cataract reduction and reducing intraocular pressure
# Method: as §1, §5, §2, §4
# [6] = system: intraocular pressure, glaucoma-induced left eye; test: Intraocular pressure, tonometer (Table 9); conditions: 0.5%, Table 9 G5 group
# Method: as §2, §4
# (§6) All test formulations provided as above were administered topically as a therapeutic treatment. A total of 100 μL/Rabbit of placebo or Rosmarinic acid formulations (F1, F2, F3 and F4) were instilled in the 50 μL/eye (left) in two divided doses for 28 days
# [7] = system: cataract induced left eye: lens and cornea; test: Microscopic observations (histopathology) of lens and cornea (Tables 4-8); conditions: 0.5% rosmarinic acid, Table 8, G5 group
# Method: as §1, §2, §6, §3
# [8] = left eye (cataract induced), macroscopic
structure (smiles),measurement,setting,value
O=C(/C=C/c1ccc(O)c(O)c1)O[C@H](Cc1ccc(O)c(O)c1)C(=O)O [Rosmarinic acid],"Within Normal Histological Limits, incidence",[1],0/6
same,"Epithelial proliferation, incidence",[1]; lens,2/6
same,"Epithelial proliferation: Absent, incidence",[1]; lens,4/6
same,"Lenticular Degeneration, incidence",[1]; lens,4/6
same,"Liquefaction, incidence",[1]; lens,4/6
same,"Liquefaction: Absent, incidence",[1]; lens,2/6
same,"Epithelial proliferation: Marked, incidence","[1]; lens, number of animals",1
same,"Epithelial proliferation: Minimal, incidence","[1]; lens, number of animals",1
same,"Liquefaction: Marked, incidence","[1]; lens, number of animals",1
same,"Liquefaction: Minimal, incidence","[1]; lens, number of animals",3
same,macroscopic examination (in words),"[2]; Table 11, G2 0.5% rosmarinic acid, G6 0.25% caffeic acid","minimal corneal opacity in some animals, with no abnormalities in one"
same,"Opacity, cornea and red discoloured, with diffuse opacity: Minimal, incidence",[2]; [8],1/6
same,"Opacity, cornea, diffuse: Mild, incidence",[2]; [8],1/6
same,"Opacity, cornea, diffuse: Minimal, incidence",[2]; [8],3/6
same,"No Abnormality Detected, incidence","[2]; left eye (cataract induced), macroscopic, animals affected/6",1/6
same,"Intraocular Pressure, mean",[3]; Day 3,83.15
same,"Intraocular Pressure, mean",[3]; Day 6,77.55
same,"Intraocular Pressure, mean",[3]; Day 9,78.72
same,"Intraocular Pressure, mean",[3]; Day 12,66.83
same,"Intraocular Pressure, mean",[3]; Day 15,48.83
same,"Intraocular Pressure, mean",[3]; Day 18,48.48
same,"Intraocular Pressure, mean",[3]; Day 21,46.77
same,"Intraocular Pressure, mean",[3]; Day 24,44.55
same,"Intraocular Pressure, mean",[3]; Day 27,42.62
same,"Intraocular Pressure, mean",[3]; Day 30,23.27
same,"Intraocular Pressure, mean",[3]; Day 33,18.45↓↓
same,Macroscopic inference (Left Eye),[4],no abnormalities found in all the 6 animals
same,overall efficacy (in words),"[5]; 0.5% rosmarinic acid, G5 of first study","demonstrates its efficacy not only in preventing lens liquefaction, epithelial proliferation, and corneal edema and treating cataract but also in reducing intraocular pressure"
same,overall efficacy (in words),"[5]; second study, 0.5% rosmarinic acid (G2), 0.25% caffeic acid (G6)",shown to be the best; also recorded: superior efficacy
same,intraocular pressure following treatment,[6]; 28-day treatment regimen,20.06 mmHg
same,intraocular pressure initially measured,[6]; within six days,59.72 mmHg
same,corneal edema (in words),[7],five animals' corneal edema was within histological limits and one animal with minimal corneal edema
same,epithelial proliferation in lens (in words),[7],In five animals' epithelial proliferation in lens was within histological limits; also recorded: Only one animal displayed minimal epithelial proliferation
same,liquefaction in the lens (in words),[7],"in four animals, liquefaction in the lens is within histological limits; also recorded: in two animals, minimal liquefaction was observed"
